For 66 compounds, IC50 results are on record in patent US7879846B2, “Serine hydrolase inhibitors” (Kyorin Pharmaceutical Co.., Ltd., priority 2006, dated 2011).

Molecules are shown by their SMILES. Where only a bound is given, the exact number is not on record here.

For the assay, the target named is T1, Human sputum neutrophil elastase (Homo sapiens, UniProt P08246).
T1 construct: purchased Elastin Products Co; host or cells: human sputum (natural source)
T1 sequence (P08246 30-247 limits assumed): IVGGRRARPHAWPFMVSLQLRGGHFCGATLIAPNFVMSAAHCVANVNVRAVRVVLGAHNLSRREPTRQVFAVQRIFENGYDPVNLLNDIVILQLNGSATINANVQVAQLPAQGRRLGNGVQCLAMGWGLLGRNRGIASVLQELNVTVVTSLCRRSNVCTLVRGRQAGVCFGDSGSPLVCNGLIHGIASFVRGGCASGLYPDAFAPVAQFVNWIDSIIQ
Description: Inhibitor IC50 against human neutrophil elastase (fluorogenic MeOSuc-AAPV-AMC substrate). The settings on record: 20 min preincubation, read-out: HNE IC50. Format: biochemical. The gist of the method:
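Enzyme from human sputum in 200 mM Tris pH 7.4 with 1 mg/ml BSA; MeOSuc-AAPV-AMC at 1×10^−4 M final. Reaction ran 20 min at room temperature, then quenched with 3% (v/v) acetic acid. IC50 from Hill fit of fluorescence versus inhibitor concentration.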
For `CCc1cc(OC)cc2nc(-c3ccnc(N4CCN(C)CC4)c3)oc(=O)c12` [Compound 205], the IC50 (in general, the concentration that gives 50% inhibition) is more than 150 nM. Regarding `CCc1cc(OC)cc2nc(-c3cccc(N4CCN(C)CC4)n3)oc(=O)c12` [Compound 206], the concentration for half-maximal inhibition (IC50) was 16 to 60 nM. In the case of `CCc1cc(OC)cc2nc(-c3ccc(N4CCN(C)CC4)nc3)oc(=O)c12` [Compound 207], the IC50 was in the range of 16 to 60 nM. Take `CCc1cc(OC)cc2nc(-c3cccnc3N3CCC(S(=O)(=O)O)CC3)oc(=O)c12` [Compound 209]: the IC50 was 16 to 60 nM. For the compound `CCc1cc(OC)cc2nc(-c3cccnc3N3CCN(CCOCCO)CC3)oc(=O)c12` [Compound 210], the half-maximal inhibitory concentration (IC50) was in the range of 16 to 60 nM. On to `CCc1cc(OC)cc2nc(-c3cccnc3N3CCCC(N(C)C)C3)oc(=O)c12` (stereo not drawn) [Compound 212], for which the half-inhibitory concentration (IC50) lay in the range of 16 to 60 nM. As to `CCc1cc(OC)cc2nc(-c3cccnc3N3CCN(CCC(=O)O)CC3)oc(=O)c12` [Compound 213], the IC50 is less than 15 nM.

For the compound `CCc1cc(OC)cc2nc(-c3cccnc3N3CCC(O)CC3)oc(=O)c12` [Compound 214], the IC50 is less than 15 nM.

As for `CCc1cc(OC)cc2nc(-c3cccnc3N3CCC(N4CCCC4)CC3)oc(=O)c12` [Compound 215], the IC50 is less than 15 nM. Consider `CCc1cc(OC)cc2nc(-c3cccnc3N3CCC(N4CCCCC4)CC3)oc(=O)c12` [Compound 216], for which the IC50 is less than 15 nM.

For the compound `C=CCN1C[C@@H](C)N(c2ncccc2-c2nc3cc(OC)cc(CC)c3c(=O)o2)C[C@H]1C` [Compound 217], the IC50 was less than 15 nM. Turning to `CCc1cc(OC)cc2nc(-c3cccnc3N3CCN(CC4CCCO4)CC3)oc(=O)c12` (stereo not drawn) [Compound 218], the IC50 was less than 15 nM. As to `CCc1cc(OC)cc2nc(-c3cccnc3N3CCN(CCCC#N)CC3)oc(=O)c12` [Compound 219], the IC50 is 16 to 60 nM. In the case of `CCc1cc(OC)cc2nc(-c3cccnc3N3CCC(N(C)C)CC3)oc(=O)c12` [Compound 220], the half-maximal inhibitory concentration (IC50) was in the range of 16 to 60 nM. Under `CCOC(=O)CCN1CCN(c2ncccc2-c2nc3cc(OC)cc(CC)c3c(=O)o2)CC1` [Compound 221] stands 16 to 60 nM; under `CCCN1CCN(c2ncccc2-c2nc3cc(OC)cc(CC)c3c(=O)o2)CC1` [Compound 222], 16 to 60 nM; under `CCc1cc(OC)cc2nc(-c3cccnc3N3CCN(c4ccccc4)CC3)oc(=O)c12` [Compound 223], 61 to 150 nM. As to `CCc1cc(OC)cc2nc(-c3cccnc3N3CCC(Cc4ccccc4)CC3)oc(=O)c12` [Compound 224], the IC50 lay within 61 to 150 nM. Under `CCc1cc(OC)cc2nc(-c3cccnc3N3CCC(CCCC(=O)O)CC3)oc(=O)c12` [Compound 225] stands 16 to 60 nM; under `CCc1cc(OC)cc2nc(-c3cccnc3N3CCCCC3)oc(=O)c12` [Compound 226], 16 to 60 nM.

As for `C#CCOC(=O)NCCN1CCN(c2ncccc2-c2nc3cc(OC)cc(CC)c3c(=O)o2)CC1` [Compound 227], the IC50 was in the range of 16 to 60 nM. Consider `C#CCCN1CCN(c2ncccc2-c2nc3cc(OC)cc(CC)c3c(=O)o2)CC1` [Compound 228], for which the half-maximal inhibitory concentration (IC50) is less than 15 nM. Under `CCc1cc(OC)cc2nc(-c3cccnc3N3CC[N+](C)(C)CC3)oc(=O)c12` [Compound 229] stands less than 15 nM; under `CCc1cc(OC)cc2nc(-c3cccnc3N3CC[N+](C)(CCOC)CC3)oc(=O)c12` [Compound 230], less than 15 nM. `CCc1cc(OC)cc2nc(-c3cccnc3N3CC[N+](C)(CC4OCCO4)CC3)oc(=O)c12` [Compound 231]: the concentration for half-maximal inhibition (IC50) is less than 15 nM. With `CCc1cc(OC)cc2nc(-c3cccnc3N3CC[C@H]([N+](C)(C)C)C3)oc(=O)c12` [Compound 232, {1-[3-(5-Ethyl-7-methoxy-4-oxo-4H-benz[d][1,3]oxazin-2-yl)-pyridin-2-yl]-pyrrolidin-3-yl}-trimethyl-ammonium acetate], the IC50 was less than 15 nM.

In the case of `C#CCN1CCN(c2ncccc2-c2nc3cc(OC)cc(CC)c3c(=O)o2)CC1` [Compound 233], the concentration for half-maximal inhibition (IC50) is 16 to 60 nM. The same measure for `C#CCN1CCN(c2ncccc2-c2nc3cccc(CC)c3c(=O)o2)CC1` [Compound 234]: less than 15 nM. The same measure for `C#CCN1CCN(c2ncccc2-c2nc3cccc(C(F)(F)F)c3c(=O)o2)CC1` [Compound 235]: less than 15 nM; for `CCc1cc(OC)cc2nc(-c3cccnc3N(C)CCN3CCCC3)oc(=O)c12` [Compound 237]: less than 15 nM. Take `CCc1cc(OC)cc2nc(-c3cccnc3N(CC)CCCN3CCOCC3)oc(=O)c12` [Compound 238]: the IC50 is less than 15 nM. As for `CCc1cc(OC)cc2nc(-c3cccnc3N(C)CCN(C)C)oc(=O)c12` [Compound 239], the IC50 was less than 15 nM. Under `CCc1cc(OC)cc2nc(-c3cccnc3N3CCN(c4cccnc4)CC3)oc(=O)c12` [Compound 240] stands less than 15 nM; under `CCc1cc(OC)cc2nc(-c3cccnc3N(C)CCCN(C)C)oc(=O)c12` [Compound 241], less than 15 nM; under `CCc1cc(OC)cc2nc(-c3cccnc3N(C)CC3CCN(C)CC3)oc(=O)c12` [Compound 242], less than 15 nM. For `CCc1cc(OC)cc2nc(-c3cccnc3N3CCCC(CN4CCOCC4)C3)oc(=O)c12` (stereo not drawn) [Compound 243], the IC50 lay in the range of 16 to 60 nM. The same measure for `CCc1cc(OC)cc2nc(-c3cccnc3N(C)CC3CCN(C)C3)oc(=O)c12` (stereo not drawn) [Compound 244]: less than 15 nM; for `CCc1cc(OC)cc2nc(-c3cccnc3N3CCC(CN4CCOCC4)CC3)oc(=O)c12` [Compound 245]: less than 15 nM. With `CCc1cc(OC)cc2nc(-c3cccnc3N3CCC(CN(C)C)CC3)oc(=O)c12` [Compound 246], the IC50 fell in the range of 16 to 60 nM.

Take `CCc1cc(OC)cc2nc(-c3cccnc3N3CCC(CCN4CCOCC4)CC3)oc(=O)c12` [Compound 247]: the IC50 was less than 15 nM. In the case of `CCc1cc(OC)cc2nc(-c3cccnc3N3CCC(CCN(C)C)CC3)oc(=O)c12` [Compound 248], the concentration for half-maximal inhibition (IC50) is less than 15 nM. As to `CCc1cc(OC)cc2nc(-c3cccnc3N3CCN(c4nccs4)CC3)oc(=O)c12` [Compound 250], the half-maximal inhibitory concentration (IC50) was less than 15 nM.

`CCc1cc(OC)cc2nc(-c3cccnc3N3CCC(N4CCOCC4)CC3)oc(=O)c12` [Compound 251]: the IC50 is less than 15 nM. Regarding `CCc1cc(OC)cc2nc(-c3cccnc3N3CCN(c4ccncc4)CC3)oc(=O)c12` [Compound 252], the IC50 is less than 15 nM. On to `CCc1cc(OC)cc2nc(-c3cccnc3N3CCN(c4ccccn4)CC3)oc(=O)c12` [Compound 253], for which the IC50 was less than 15 nM.

On to `CCc1cc(OC)cc2nc(-c3cccnc3N3CC4CC3CN4CC)oc(=O)c12` (stereo not drawn) [Compound 254], for which the 50% inhibitory concentration (IC50) was 16 to 60 nM. Consider `CCc1cc(OC)cc2nc(-c3cccnc3N3CC4(C)CN(C)CC(C)(C3)C4O)oc(=O)c12` (stereo not drawn) [Compound 255], for which the IC50 was less than 15 nM. Under `CCc1cc(OC)cc2nc(-c3cccnc3N3CCC(CCN4CCCC4)CC3)oc(=O)c12` [Compound 257] stands less than 15 nM; under `CCc1cc(OC)cc2nc(-c3cccnc3N3C[C@H](CNC4CC4)[C@H](F)C3)oc(=O)c12` [Compound 258], 16 to 60 nM. In the case of `CCc1cc(OC)cc2nc(-c3cccnc3N3C[C@@H](CNC4CC4)[C@H](C)C3)oc(=O)c12` [Compound 259], the IC50 lay in the range of 16 to 60 nM. Regarding `CCc1cc(OC)cc2nc(-c3cccnc3N3C[C@H](CNC4CC4)[C@@H](C)C3)oc(=O)c12` [Compound 260], the IC50 lay within 16 to 60 nM. The same measure for `CCc1cc(OC)cc2nc(-c3cccnc3N3CC[C@H](N4CCNC(=O)C4)C3)oc(=O)c12` [Compound 261]: less than 15 nM; for `CCc1cc(OC)cc2nc(-c3cccnc3N3CC[C@H](N4CCOCC4)C3)oc(=O)c12` [Compound 262]: less than 15 nM; for `CCc1cc(OC)cc2nc(-c3cccnc3N3CC[C@H](N(CCO)CCO)C3)oc(=O)c12` [Compound 263]: less than 15 nM.

For `CCc1cc(OC)cc2nc(-c3cccnc3N3CC[C@H](N4CCS(=O)(=O)CC4)C3)oc(=O)c12` [Compound 264], the IC50 was less than 15 nM. Under `CCc1cc(OC)cc2nc(-c3cccnc3N3CC[C@@H](N(C)CCOC)C3)oc(=O)c12` [Compound 265] stands less than 15 nM; under `CCc1cc(OC)cc2nc(-c3cccnc3N3CC[C@@H](N4CCNC(=O)C4)C3)oc(=O)c12` [Compound 266], less than 15 nM; under `CCc1cc(OC)cc2nc(-c3cccnc3N3CC[C@@H](N4CCOCC4)C3)oc(=O)c12` [Compound 267], less than 15 nM. Take `CCc1cc(OC)cc2nc(-c3cccnc3N3CC[C@@H](N(CCO)CCO)C3)oc(=O)c12` [Compound 268]: the IC50 was less than 15 nM. Take `CCc1cc(OC)cc2nc(-c3cccnc3N3CC[C@@H](N4CCS(=O)(=O)CC4)C3)oc(=O)c12` [Compound 269]: the IC50 is less than 15 nM. The same measure for `CCc1cc(OC)cc2nc(-c3cccnc3N3CC[C@@H](N(C)CCO)C3)oc(=O)c12` [Compound 270]: less than 15 nM; for `CCc1cc(OC)cc2nc(-c3cccnc3N3CCC[C@H]3CN3CCCC3)oc(=O)c12` [Compound 271]: less than 15 nM.

With `CCc1cc(OC)cc2nc(-c3cccnc3N3CCC(CN4CCCC4)CC3)oc(=O)c12` [Compound 272], the IC50 is less than 15 nM. As to `CCc1cc(OC)cc2nc(-c3cccnc3N3CCC(C)(C(=O)N4CCN(C)CC4)CC3)oc(=O)c12` [Compound 273], the half-inhibitory concentration (IC50) was in the range of 16 to 60 nM. Under `CCc1cc(OC)cc2nc(-c3cccnc3N3CCC(C)(C(=O)NCCN(CC)CC)CC3)oc(=O)c12` [Compound 274] stands less than 15 nM. The same measure for `CCc1cc(OC)cc2nc(-c3cccnc3N3CCC(c4c[nH]cn4)CC3)oc(=O)c12` [Compound 275]: less than 15 nM.
